Structures are written as SMILES. Values after ≈ are worked out from the molar mass of the structure shown. Bounds are passed on as bounds.

One data set has as its system Mus musculus. The data set is described as follows: Reduction in amyloid beta42 production in wild type mouse plasma at 100 mg/kg, po. Format: functional.
Details: not given
Also noted: scale not given: the % may be the effect or the level left.
The compound `COc1cc(C(=O)N[C@H]2CCCN(Cc3ccc(Br)cc3)C2)ccc1-n1cnc(C)c1` came in with an Activity of 66%.

Tested on in the next data set: not listed separately
The data set is described as follows: Permeability of the compound at pH 7.4 by PAMPA. Format: ADME. Particulars: read-out: permeability.
With `COc1cc(C(=O)N[C@H]2CCCN(Cc3ccc(Br)cc3)C2)ccc1-n1cnc(C)c1`, the Papp is 50 ×10⁻⁶ cm/s.

For the next data set, the species on record is Rattus norvegicus. The data set is described as follows: Modulation of gamma-secretase in rat fetus primary neurons assessed as inhibition of amyloid beta42 production at 2.5 uM after 1 to 3 days by ELISA.
Details: not given
As for `COc1cc(C(=O)N2CCC(NCc3cccc(C(F)(F)F)c3)C2)ccc1-n1cnc(C)c1` (configuration not stated), the inhibition was 39%.
With `COc1cc(C(=O)N[C@@H]2CCCN(Cc3ccc(C(F)(F)F)cc3)C2)ccc1-n1cnc(C)c1`, the inhibition amounted to 57%.
Take `COc1cc(C(=O)NC2CCCN(Cc3ccc(C)cc3)C2)ccc1-n1cnc(C)c1` (racemic): the inhibition is 82%.
Same read-out and setting: under `COc1cc(C(=O)N[C@H]2CCCN(C(=O)c3ccc(C)cc3)C2)ccc1-n1cnc(C)c1` stands 55%.
As for `COc1cc(C(=O)NC2CCCN(Cc3ccc(C(F)(F)F)cc3)C2)ccc1-n1cnc(C)c1` (racemic), the inhibition was determined as 90%.
Regarding `COc1cc(C(=O)NC2CCCN(Cc3ccccc3C)C2)ccc1-n1cnc(C)c1` (racemic), the inhibition is 62%.
Take `COc1cc(C(=O)N2CCN(Cc3cccc(C(F)(F)F)c3)CC2)ccc1-n1cnc(C)c1`: the inhibition is 18%.
On the same count and under the same terms, with `COc1cc(C(=O)N[C@H]2CCCN(C(=O)c3ccc(C(F)(F)F)cc3)C2)ccc1-n1cnc(C)c1` the figure was 34%; with `COc1cc(C(=O)N[C@H]2CCCN(Cc3ccc(Br)cc3)C2)ccc1-n1cnc(C)c1`, 97%.
The same measure, in the same setting: under `COc1cc(C(=O)NC2CC3CCC(C2)N3Cc2cccc(C(F)(F)F)c2)ccc1-n1cnc(C)c1` (configuration not stated) stands 40%; under `COc1cc(C(=O)N[C@H]2CCCN(Cc3ccc(C)cc3)C2)ccc1-n1cnc(C)c1`, 90%.
As to `COc1cc(C(=O)NC2CCN(Cc3cccc(C(F)(F)F)c3)CC2)ccc1-n1cnc(C)c1`, the inhibition is 78%.
For `COc1cc(C(=O)NC2CCCN(Cc3ccc(Br)cc3)C2)ccc1-n1cnc(C)c1` (racemic), the inhibition came out at 93%.
`COc1cc(C(=O)N2CCCC(NCc3cccc(C(F)(F)F)c3)C2)ccc1-n1cnc(C)c1` (configuration not stated): the inhibition stood at 17%.
As for `COc1cc(C(=O)N(C(C)C)C2CCCN(Cc3cccc(C(F)(F)F)c3)C2)ccc1-n1cnc(C)c1` (configuration not stated), the inhibition is less than 1%.
`COc1cc(C(=O)NC2CCCN(C(=O)NCc3ccc(Br)cc3)C2)ccc1-n1cnc(C)c1` (racemic): the inhibition amounted to 47%.
On to `COc1cc(C(=O)N[C@H]2CCCN(C(=O)c3ccc(Br)cc3)C2)ccc1-n1cnc(C)c1`, for which the inhibition turned out to be 64%.
Still for that read-out and setting: under `COc1cc(C(=O)NC2CCCN(C(=O)NCc3ccccc3)C2)ccc1-n1cnc(C)c1` (racemic) stands 25%; under `COc1cc(C(=O)N[C@H]2CCCN(Cc3cccc(C(F)(F)F)c3)C2)ccc1-n1cnc(C)c1`, 82%; under `COc1cc(C(=O)N[C@@H]2CCCN(Cc3ccc(Br)cc3)C2)ccc1-n1cnc(C)c1`, 55%.
Regarding `COc1cc(C(=O)NC2CCCN(Cc3cccc(C)c3)C2)ccc1-n1cnc(C)c1` (racemic), the inhibition was 54%.
In the case of `COc1cc(C(=O)NC2CCCN(C(=O)NCc3ccc(C)cc3)C2)ccc1-n1cnc(C)c1` (racemic), the inhibition amounted to 28%.
The same measure, in the same setting: with `COc1cc(C(=O)N2C3CCC2CN(Cc2cccc(C(F)(F)F)c2)C3)ccc1-n1cnc(C)c1` the figure was 19%; with `COc1cc(C(=O)N(C)C2CCCN(Cc3cccc(C(F)(F)F)c3)C2)ccc1-n1cnc(C)c1` (configuration not stated), less than 1%; with `COc1cc(C(=O)NC2CCN(Cc3cccc(C(F)(F)F)c3)C2)ccc1-n1cnc(C)c1` (configuration not stated), 31%.
For `COc1cc(C(=O)N[C@@H]2CCCN(Cc3cccc(C(F)(F)F)c3)C2)ccc1-n1cnc(C)c1`, the inhibition amounted to 72%.
Still for that read-out and setting: with `COc1cc(C(=O)N[C@@H]2CCCN(Cc3ccc(C)cc3)C2)ccc1-n1cnc(C)c1` the figure was 36%; with `COc1cc(C(=O)N2CC3CC2CN3Cc2cccc(C(F)(F)F)c2)ccc1-n1cnc(C)c1` (configuration not stated), 51%.
Still for that read-out and setting: under `CCN(C(=O)c1ccc(-n2cnc(C)c2)c(OC)c1)C1CCCN(Cc2cccc(C(F)(F)F)c2)C1` (configuration not stated) stands less than 1%; under `COc1ccc(CN2CCCC(NC(=O)c3ccc(-n4cnc(C)c4)c(OC)c3)C2)cc1` (racemic), 45%; under `COc1cc(C(=O)NC2CCCN(Cc3ccccc3)C2)ccc1-n1cnc(C)c1` (racemic), 37%.
On the same count and under the same terms, under `COc1cc(C(=O)N[C@H]2CCCN(Cc3ccc(C(F)(F)F)cc3)C2)ccc1-n1cnc(C)c1` stands 92%.

Tested on in a further data set: not listed separately
The data set is described as follows: Modulation of gamma-secretase in rat fetus primary neurons assessed as inhibition of amyloid beta42 production after 1 to 3 days by ELISA.
Details: not given
For `COc1cc(C(=O)N[C@H]2CCCN(Cc3ccc(Br)cc3)C2)ccc1-n1cnc(C)c1`, the 50% inhibitory concentration (IC50) turned out to be 250 nM.

Another data set concerns Mus musculus. The data set is described as follows: Reduction in amyloid beta42 production in wild type mouse hippocampus at 100 mg/kg, po.
Details: not given
Also noted: scale not given: the % may be the effect or the level left. In kind it is functional.
On to `COc1cc(C(=O)N[C@H]2CCCN(Cc3ccc(Br)cc3)C2)ccc1-n1cnc(C)c1`, for which the Activity is on record as 55%.

Tested on in the next data set: not listed separately
The data set is described as follows: Aqueous solubility of the compound at pH 7.4. In kind it is physicochemical.
Details: not given
`COc1cc(C(=O)N[C@H]2CCCN(Cc3ccc(Br)cc3)C2)ccc1-n1cnc(C)c1` gave a solubility of 8 µg/mL (≈ 16.5 µM).
